From US20140271930A1, “NONINVASIVE METHOD FOR MEASURING METABOLITES FOR SKIN HEALTH” (priority 2013, published 2014)
Marks after values point to notes of the source that are not given here.

Test system: scalp of dandruff and non-dandruff subjects
Test: Metabolite expression profiling (LC/MS/MS, GC/MS/MS) of scalp D-Squame tape strip extracts: non-dandruff, dandruff baseline, dandruff after 3 weeks anti-dandruff shampoo
Type: in vivo, human
Details: for Fold Change Wk 3 Sel vs Dandruff Baseline / Fold Change Wk 3 ZPT vs Dandruff Baseline / Fold Change Wk 3 ZPT vs Non-Dan Baseline / Fold Change Wk 3 Sel vs Non-Dan Baseline: metabolite level in scalp tape strips; for Fold Change Wk 3 Sel vs Dandruff Baseline / Fold Change Wk 3 ZPT vs Dandruff Baseline: standardized to soluble protein; for Fold Change Wk 3 Sel vs Dandruff Baseline: dandruff subjects after 3 weeks 1% selenium sulfide shampoo vs own baseline; for Fold Change Wk 3 ZPT vs Dandruff Baseline: dandruff subjects after 3 weeks 1% zinc pyrithione shampoo vs own baseline; for Fold Change Wk 3 ZPT vs Non-Dan Baseline: dandruff subjects after 3 weeks 1% ZPT shampoo vs non-dandruff subjects; for Fold Change Wk 3 Sel vs Non-Dan Baseline: dandruff subjects after 3 weeks 1% selenium sulfide shampoo vs non-dandruff subjects; for reduction / decrease of metabolite level vs dandruff baseline: after three weeks ZPT shampoo; for decrease of metabolite level vs dandruff baseline: after three weeks selenium sulfide shampoo
Description: In an embodiment, the use of an adhesive device can be used to achieve such sampling. In preparation for such a sampling study for a dandruff sampling, at a baseline visit, a qualified screening grader will complete adherent scalp flaking score (ASFS) grading for each subject and the highest flaking octant will be identified for tape strip sampling. The highest flaking octant will be sampled at baseline and at various time points during and after treatment with product. Tape strips samples will be collected from each subject at each time point (e.g., baseline and week 3).
The tape strip sampling procedure is repeated additional times, as needed, at the same site placing each D-Squame® tape disc on top of the prior sampled area. The D-Squame® tapes after sample collection are placed into the appropriately labeled wells in a labeled plate.
Following the sampling, an extraction and quantitation procedure is conducted. In an embodiment of the present invention, quantitation of small molecules from extracts of D-Squame® Tape Samples can be conducted via analysis by either LC/MS/MS or GC/MS/MS. In this embodiment of the present invention, the sample extraction in preparation for Metabolite expression profiling technology was performed.
The D-Squame® tape sample plates are removed from −80° C. freezer where they are stored following sample collection, and placed on dry ice. The tape strips are inserted into pre-labeled polypropylene collection tubes, adhesive side facing inward. Extraction buffer containing methanol and water is added to each collection tube and then extracted on ice using sonication for 15 min. If necessary, additional tapes are placed in the collection tube containing the extract solution and the extraction process is repeated as a means of concentrating the sample. Each extract solution is isolated from the tape strip and an aliquot of each sample is placed into a pre-labeled polypropylene collection tubes and frozen at −80° C. for metabolite expression profiling analysis. A separate aliquot is specified for soluble protein analysis using a BCA™ Protein Assay Kit. For this analysis, the aliquot consisting of methanol and water is taken to dryness under a gentle stream of nitrogen. The sample is resuspended in an appropriate aqueous buffer (e.g., PBS/SDS (1× PBS+0.2% SDS) and analyzed for soluble protein.
The extracts are analyzed by GC/MS/MS and LC/MS/MS in positive and negative ion mode. Chromatographic separation followed by full scan mass spectra and MS/MS spectra is carried out to record and quantify all detectable ions present in the samples. Metabolites with known chemical structure can be identified by matching the ions' chromatographic retention index and mass spectra fragmentation signatures with reference library entries created from authentic standard metabolites under the identical analytical procedure as the experimental samples. Welch's Two Sample t-tests and matched-pair t-tests are used to analyze the data. […] The statistical analyses are performed on natural log-transformed data to reduce the effect of any potential outliers in the data. Welch's Two Sample t-test comparisons are made between the means of each biochemical from the various groups listed at the top of the tables and are calculated using either or both of the statistical analysis software programs: Array Studio (Omicsoft, Inc) or “R” from the Free Software Foundation, Inc.
Subjects are evaluated by a qualified grader to establish their scalp status. Dandruff subjects are identified by their level of visible flaking as assessed by a qualified grader. Non-dandruff healthy scalp subjects are evaluated at baseline to establish normalized levels of each biomarker. In this study, there are 60 non-dandruff subjects that are evaluated at baseline. […] They are evaluated at baseline, and after 3 weeks of product usage.

[1] = dandruff subjects after 3 weeks treatment with Sel shampoo, metabolite level in scalp tape strip extract
[2] = dandruff subjects after 3 weeks treatment with ZPT shampoo, metabolite level in scalp tape strip extract
[3] = relative metabolite level in scalp tape strips, dandruff subjects after 3 weeks 1% ZPT shampoo
[4] = relative metabolite level in scalp tape strips, dandruff subjects after 3 weeks 1% selenium sulfide shampoo

Row | Compound | Mean Values WEEK 3 TRT Sel [1] | Mean Values WEEK 3 TRT ZPT [2] | Fold Change Wk 3 Sel vs Dandruff Baseline | Fold Change Wk 3 ZPT vs Dandruff Baseline | Fold Change Wk 3 ZPT vs Non-Dan Baseline | Fold Change Wk 3 Sel vs Non-Dan Baseline | reduction / decrease of metabolite level vs dandruff baseline [%] | decrease of metabolite level vs dandruff baseline [%] | Mean Values WEEK 3 TRT ZPT [3] | Mean Values WEEK 3 TRT Sel [4] | Fold Change Wk 3 Sel vs Dandruff Baseline (listed as 13-HODE+9-HODE) [fold] | Fold Change Wk 3 ZPT vs Dandruff Baseline (listed as 13-HODE+9-HODE) [fold]
1 | CCCCC/C=C\C/C=C\CCCCCCCCCCCC(=O)O [docosadienoate (22:2n6), docosadienoate] | 0.1554 | 0.3022 | 0.12* fold | 0.24* fold | 0.28* fold | 0.14* fold |  |  |  |  |  | 
2 | O=c1[nH]c(=O)c2[nH]cnc2[nH]1 [Xanthine] |  |  |  |  |  |  | 84 | 85 |  |  |  | 
3 | CCCCCCCCCCCCCCCCCCCC(=O)O [arachidate (20:0), arachidate] | 0.6154 | 0.7662 | 0.42* fold | 0.55* fold | 0.56*** fold | 0.45*** fold |  |  |  |  |  | 
4 | N[C@@H](CCC(=O)O)C(=O)O [Glutamate] |  |  |  |  |  |  |  |  | 0.7627 | 1.0169 |  | 
5 | NCC(=O)O [Glycine] |  |  |  |  |  |  |  |  | 0.7968 | 0.8645 |  | 
6 | O=C(O)c1ccccc1 [Benzoate] |  |  | 7.26**** fold | 2.02**** fold | 2.16**** fold | 4.26**** fold |  |  |  |  |  | 
7 | O=C(O)/C=C/c1cnc[nH]1 [trans-urocanate] |  |  | 0.74* fold | 0.87 fold | 1.41 fold | 1.21 fold |  |  | 1.0096 | 0.8661 |  | 
8 | CCCCCCCCCCCCCCC(O)C(=O)O (centres unmarked) [2-hydroxypalmitate] | 0.6696 | 0.8231 | 0.57* fold | 1.04 fold | 0.6* fold | 0.49* fold |  |  |  |  |  | 
9 | OC[C@@H](O)C(O)[C@H](O)CO [Arabitol] |  |  | 0.73 fold | 0.61* fold | 0.65 fold | 1.07 fold |  |  |  |  |  | 
10 | NCCCC(=O)O [Gamma-aminobutyrate (GABA), Gamma-aminobutyrate] |  |  |  |  |  |  |  |  | 0.1343 | 0.1888 |  | 
11 | CCCCCCC=CCCCCCCCCC(=O)O [10-heptadecenoate (17:1n7), 10-heptadecenoate] | 0.4139 | 0.7411 | 0.33* fold | 0.67*** fold | 0.52*** fold | 0.29* fold |  |  |  |  |  | 
12 | CC(C)CCCCCCCCCCCCCCCC(=O)O [17-methylstearate] | 0.273 | 0.4446 | 0.21* fold | 0.36* fold | 0.35* fold | 0.22* fold |  |  |  |  |  | 
13 | O=C(O)CCc1cnc[nH]1 [imidazole propionate] |  |  |  |  |  |  |  |  | 0.8095 | 0.7836 |  | 
14 | 13- and 9-hydroxyoctadecadienoic acid [13-HODE + 9-HODE] | 0.4182 | 0.4413 | 0.34* fold | 0.26*** fold | 0.5*** fold | 0.48* fold | 74 | 66 |  |  | 0.34 | 0.26
15 | CCCCCCCCCCCCCCC(=O)O [pentadecanoate (15:0), pentadecanoate] | 0.3057 | 0.5867 | 0.19* fold | 0.4* fold | 0.37* fold | 0.19* fold |  |  |  |  |  | 
16 | CCCCCCCC/C=C\CCCCCCCC(=O)NCCO [oleic ethanolamide] | 1.1213 | 1.5447 |  |  |  |  |  |  |  |  |  | 
17 | CCCCC/C=C\C/C=C\CCCCCCCC(=O)O [linoleate (18:2n6), linoleate] |  |  |  |  |  |  | 82 | 78 |  |  |  | 
18 | CCCCCCCCCCCCCCCCC(=O)OCC(O)CO (centres unmarked) | 0.638 | 1.1274 |  |  |  |  |  |  |  |  |  | 
19 | O=C(O)/C=C/C(=O)O [Fumarate] |  |  | 0.37*** fold | 0.53 fold | 0.68 fold | 0.76 fold |  |  |  |  |  | 
